Laboratory results from patent US20080027088A1, “Imidazole-Based Hmg-Coa Reductase Inhibitors” (Warner-Lambert Company, LLC, priority 2004, published 2008).

Experiments:
Type in all cases: in vivo
[1] = test system: ApoE KO mice fed a Western diet; assay: Plasma total cholesterol and triglyceride, 4 weeks myriocin diet admix
Description: (§1) Animal experiments—Male C57BI/6J and ApoE KO mice on C57BI/6J background were obtained from the Jackson Laboratory (Bar Harbor, Me.) or Taconic (Germantown, N.Y.) (Plaque formation in ApoE KO mice is lipid-driven (A. S. Plump et al., Cell. 1992;71 (2):343-53)). Myriocin was mixed with Western diet containing 0.21% cholesterol and 21% fat. 8-12-week-old mice received 0.3 mg myriocin/kg/day for 12 weeks (Table 1). 10-12 week-old ApoE KO mice (n=8) were pre-fed a western diet for 2 weeks and mice received various concentrations of myriocin for 4 weeks in diet admix. Control groups consisted of ApoE KO mice fed normal chow or Western diet without myriocin, and normal chow-fed C57BI/6J mice. Body weight and chow feeding was measured every week to examine the food consumption. For the femoral artery cuff model, 8-10 week-old male ApoE KO mice were anethetized and the right femoral artery was dissected from its surroundings. A nonconstrictive polyethylene cuff (Portex, 0.40-mm inner diameter, 0.80-mm outer diameter, and 1.5-mm length) was placed looselyaround the right femoral artery.
(§2) Plasma lipids and serum amyloid A measurement—Mice were sacrificed by CO2 inhalation and blood was collected through cardiac puncture. Plasma concentrations of total cholesterol and triglyceride were determined enzymatically on a Cobas Mira Plus auto-analyzer using Cholesterol R1 and Triglycerides Reagent methods, respectively (Roche Diagnostics, Indiana, USA). Colormetric changes were measured at 500 nm. Lipoproteins were separated from mouse plasma by fast-protein liquid chromatography utilizing a Superose 6HR column. Cholesterol distribution among lipoproteins was determined by in-line post column analysis (K. A. Kieft, T. M. Bocan and B. R. Krause, J. Lipid Res. 1991; 32:859-66). Serum Amyloid A (SAA) protein in plasma was measured by ELISA according to the manufacturer's instructions (Biosource).
FIG. 3. Plasma Cholesterol and Triglycerides in ApoE KO Mice Fed a Western Diet. After 4 weeks of diet admix myriocin treatment, mice were sacrificed and plasma was isolated. Plasma concentrations of total cholesterol (A) and triglyceride (B) were determined enzymatically on a Cobas Mira Plus auto-analyzer using Cholesterol R1 and Triglycerides Reagent methods, respectively. Colormetric changes were measured at 500 nm. The values reported are mean±SEM (n=8, *P<0.01).

[2] = test system: ApoE KO mice fed a Western diet; assay: Atherosclerotic lesion and macrophage area in aortic root and brachiocephalic artery, 12 weeks
Description: For histological analysis, the mice were perfused and fixed in Zinc-Tris fixative. Paraffin embedded sections were stained with Masson's Trichrome. Intimal macrophages were immunohistochemically stained using MAC-2 antibody (clone M3/38 from Cedarlane Laboratories Limited) counterstained with Verhoeff elastic stain. T-lymphocytes were immunohistochemically stained with rat CD3 antibody (clone CD3-12, Serotec). Lesion thickness and area occupied by macrophages were determined using Image Pro Plus software.
FIGS. 11 & 12. Formation of atherosclerotic lesions in aortic root and brachiocephalic artery. ApoE KO mice fed with Western-diet in the absence or presence of myriocin, ApoE KO mice and C57BI/6J mice fed with normal chow were sacrificed and fixed with Zinc-Tris. The cross-section of brachiocephalic artery was stained by Masson's Trichrome and MAC-2 antibody counterstained with Verhoeff elastic stain. Atherosclerotic lesion (black bars) and macrophage size (gray bars) in brachiocephalic artery and in aortic root were quantified by using Image Pro Plus. The values reported are mean±SEM (n=5, *P<0.01, WD vs WD plus myriocin; #P<0.01, normal vs WD plus myriocin). Bar represents 100 μm.

[3] = test system: ApoE KO mice fed a Western diet; assay: Plasma total cholesterol and triglyceride, 12 weeks; settings: 0.3 mg/kg/day
Description: as §1, with “For the femoral artery cuff model, 8-10 week-old male ApoE KO mice were anethetized and the right femoral artery was dissected from its surroundings. A nonconstrictive polyethylene cuff (Portex, 0.40-mm inner diameter, 0.80-mm outer diameter, and 1.5-mm length) was placed looselyaround the right femoral artery.” left out
as §2, with “Lipoproteins were separated from mouse plasma by fast-protein liquid chromatography utilizing a Superose 6HR column.” left out, “Serum Amyloid A (SAA) protein in plasma was measured by ELISA according to the manufacturer's instructions (Biosource).” left out
FIG. 7. […] Colormetric changes were measured at 500 nm. […]

LCB1 and LCB2 mRNA = assay: SPT gene expression (LCB1, LCB2 mRNA) in liver by RT-PCR; settings: 0.3 mg/kg/day diet admix, 12 weeks, Western diet-fed ApoE KO mice
Description: SPT expression and activity—Total RNA was isolated from liver and aorta using Trizol (Invitrogen, Calif.). LCB1 and LCB2 mRNA levels were measured by real-time (RT) polymerase chain reaction (PCR) on ABI Prism 7900HT Sequence Detection System (Applied Biosystems, Foster City, Calif.). The following primers and probe sets were utilized: LCB1, forward primer, 5′-CCGCTCCTTCGTGGTTGA-3′: reverse primer, 5′-[…]-3′: probe, 5′FAM-[…]-3′; LCB2, forward primer, 5′-[…]-3′, reverse primer, 5′-CCTCAGGATCCAGGCCM-3′, probe, 5′FAM-[…]-3′. The optimum number of cycles was set for each gene product with uniform amplification. Each mRNA level was expressed as a ratio to 18s ribosomal RND or as a ratio to GAPDH RNA.
FIGS. 1-A, 1-B, 1-C, 1-D and 1-E. SPT gene expression and enzyme activity. Mice were treated with 0.3 mg/kg/day myriocin for 12 weeks by mixing with Western diet chow. Liver was isolated and total mRNA and cell-free homogenate were prepared. SPT mRNA expression was quantified by quantitative RT-PCR. Expression was described as a ratio of LCB1 (A) or LCB2 (B) mRNA to 18s RNA or to rodent GAPDH RNA (n=5, P>0.05). SPT activity of cell-free homogenate (C) was measured with ^14C-labeled Serine and palmitoyl-coenzyme A as substrates and analyzed by TLC. Relative amounts of 3-ketosphinganine were determined by densitometry scanning. The values reported are mean±SEM (n=3, *P<0.05).

## CCCCCCC(=O)CCCCCC/C=C/C[C@@H](O)[C@H](O)[C@@](N)(CO)C(=O)O [myriocin]
[1]; 0.1 mg/kg/day
  effect on plasma TG levels: no effect
[1]; 0.1 mg/kg/day, vs no-myriocin control
  plasma cholesterol reduction: 46%
[1]; 0.3 mg/kg/day
  plasma TG levels lowered: 44%
[1]; 0.3 mg/kg/day, vs no-myriocin control
  plasma cholesterol decrease (maximum): 76%
[2]; 0.3 mg/kg
  decrease in lesion area, brachiocephalic artery: 76%
  decrease in macrophage area, brachiocephalic artery: 74%
  lesion area decreased, aortic root: 44%
  macrophage area decreased, aortic root: 31%
[2]; myriocin-treated, Western diet-fed ApoE KO mice
  necrotic core in lesions: did not develop necrotic core
[3]
  plasma TG lowered: 45%
  plasma cholesterol lowered: 41%
LCB1 and LCB2 mRNA
  effect on expression of LCB1 and LCB2 mRNA in the liver: no effect
